Data reported in patent US20260198497A1, “A BENZENE RING-SUBSTITUTED PYRIMIDINECARBOXYLIC ACID COMPOUND, PREPARATION METHOD THEREFOR, HERBICIDAL COMPOSITION AND APPLICATION THEREOF” (QINGDAO KINGAGROOT CHEMICAL COMPOUND CO., LTD., priority 2023, published 2026).
Each block holds one compound with its values, some of them ahead of it.

Key:
Euphorbia helioscopia = test: Activity assay of compositions, post-emergence spray of stems and leaves; assay type: in vivo; conditions: 21 days
From the text: (§1) The required active ingredient B was purchased from a reagent company or a technical material manufacturer or synthesized by a conventional method. The active ingredient A was Compound 74 in Table 1. The technical materials were all dissolved with acetone solvents and diluted with aqueous solution of 0.1% Tween® 80 emulsifier, which should be used immediately after dilution.
(§2) Weeds were cultivated by a pot culture method. […] Weed seeds with plump and uniform grains were selected, soaked in lukewarm water at 25° C. for 6 hours, and accelerated to germinate in a 28° C. biochemical incubator (in darkness). The weed seeds that had just germinated were evenly placed on the surface of the soil and then covered with 0.5-1 cm soil according to the sizes of seeds.
The weeds were cultured in a controllable sunlight greenhouse at 20-30° C., in natural light, and with relative humidity of 57%-72%. The soil was loam with an organic matter content of 1.63%, a pH value of 7.1, alkali-hydrolyzable nitrogen of 84.3 mg/kg, rapidly available phosphorus of 38.5 mg/kg, and rapidly available potassium of 82.1 mg/kg.
(§3) Each treatment was repeated 4 times for 3 pots. Each pot was seeded with 20 weed seeds.
(§4) The drugs were applied once in total in the experiment. When at the stage of 1.5-2 leaves, the weeds were thinned out to maintain 10 strains per pot. Thirty strains were kept in each treatment and then continued to be cultured until the Erigeron canadensis reached 10 cm tall and other weeds in their 3-4 leaf stage for further treatment.
(§5) The well-cultured test materials were evenly placed on a 0.5 m^2 platform and foliage-sprayed by the 3WP-2000-type walking spray tower at a dosage of […] and a spray pressure of 0.3 MPa. After all the drug solution was sprayed, the air valve was closed. And 30 seconds later, the door of the spray tower was opened, and the nutritional bowl was taken out. Next, the air valve was opened, and the spray tube was cleaned by spraying 50 ml of water. The test materials were transferred to and routinely cultured in a greenhouse after the treatment.
(§6) A method for investigating absolute numbers was employed. The whole seedlings of the survival weeds were cut along the soil surface with a blade, and the fresh weight of the weeds was weighed by an analytical balance. For dead weeds, the fresh weight thereof was considered zero.
(§7) The investigation was performed 21 days after the treatment for once in total.
(§8) The theoretical fresh weight inhibition rate of a mixed combination of each treatment was calculated by the Gowing method (E0=X+Y−X*Y/100). Then compared with the measured inhibition rate (E), the type of the combined action of the combination of the two on weeds was evaluated, which was a synergistic effect when E−E0>10; an antagonistic effect when E−E0<−10%; an additional effect when −10≤E−E0≤100. An optimal ratio was determined according to factors such as the actual control effects, characteristics of herbicides, balance of the formulation, etc. In the formula, X represents the fresh weight inhibition rate of the active ingredient A in a dosage of P; Y represents the fresh weight inhibition rate of the active ingredient B in a dosage of Q. The statistical results are shown in Table 5 below.

Veronica [1] = test: as above; assay type: in vivo; conditions: 21 days
Procedure: as §1, with “The active ingredient A was Compound 74 in Table 1.” left out
as §2, §3, §4, §5, §6, §7
as §8, with “Then compared with the measured inhibition rate (E), the type of the combined action of the combination of the two on weeds was evaluated, which was a synergistic effect when E−E0>10; an antagonistic effect when E−E0<−10%; an additional effect when −10≤E−E0≤100.” left out

Veronica [2] = test: Post-emergence test on weeds; assay type: in vivo; design: key: 0 = no effect, 9 = completely dead (levels by growth control rate); conditions: 30 g a.i./ha, 3 weeks after application
From the text: (§9) The criteria for activity levels of plant damage (i.e., growth control rate) are as follows: • Level 9: completely dead; • Level 8: growth control rate is greater than or equal to 90% and less than 100%; • Level 7: growth control rate is greater than or equal to 80% and less than 90%; • Level 6: growth control rate is greater than or equal to 70% and less than 80%; • Level 5: growth control rate is greater than or equal to 50% and less than 70%; • Level 4: growth control rate is greater than or equal to 30% and less than 50%; • Level 3: growth control rate is greater than or equal to 20% and less than 30%; • Level 2: growth control rate is greater than or equal to 10% and less than 20%; • Level 1: growth control rate is less than 10%; • Level 0: no effect.
(§10) The above growth control rates are fresh weight control rates.
(§11) Monocotyledonous and dicotyledonous weed seeds (Descurainia sophia, Capsella bursa-pastoris, Abutilon theophrasti, Galium spurium, Stellaria media, Lithospermum arvense, Rorippa indica, Alopecurus aequalis, Alopecurus japonicus, Eleusine indica, Beckmannia syzigachne, Sclerochloa dura, Erigeron canadensis, Phleum paniculatum, Veronica, Bromus japonicus, Aegilops tauschii, Phalaris arundinacea, Amaranthus retroflexus, Chenopodium, Commelina communis, Cichorium endivia, Convolvulus arvensis, Cirsium arvense, Solanum nigrum, Acalypha australis, Digitaria sanguinalis, Echinochloa crusgalli, Setaria viridis, Setaria pumila, Leptochloa chinensis, Monochoria vaginalis, Sagittaria trifolia, Schoenoplectiella juncoides, Cyperus rotundus, Cyperus iria, Cyperus difformis, Fimbristylis, Portulaca oleracea, Xanthium sibiricum, Ipomoea nil, Eschenbachia japonica, etc.) and major crop seeds (wheat, maize, paddy rice, soybean, cotton, oilseed rape, millet, sorghum, potato, sesame, castor plant, Chinese cabbage, radish, etc.) were placed in plastic pots filled with soil and then covered with 0.5-2 cm of soil to allow them to grow in a favorable greenhouse environment. Two weeks after sowing, the test plants were treated at the stage of 2-3 leaves. The test compounds of the present invention were individually dissolved with acetone, then added with Tween® 80, with 1.5 L/ha of methyl oleate emulsifiable concentrate as a synergist, diluted into solution of a certain concentration using a certain amount of water, and sprayed to plants using a spray tower. After drug application, the experimental results on weeds were collected after 3 weeks of cultivation in a greenhouse. The compounds were applied at 120, 60, 30, and 15 g a.i./ha in triplicate, and the results were averaged.

[3] = system: paddy rice (japonica rice); conditions: in vivo
From the text: as §9, §10
In addition, after being loaded into the 1/1,000,000 ha pot, the paddy field soil was leveled to keep the water storage at a depth of 3-4 cm. The paddy rice (japonica rice) at 3-leaf stage was transplanted at a transplanting depth of 3 cm on the next day. The compounds of the present invention were treated in the same manner as above on the 5th day after the transplantation.
(§12) The effects were evaluated according to the above-mentioned criteria for activity levels.

Bidens tripartita = test: Control effect evaluation on weeds in paddy fields; assay type: in vivo; conditions: paddy pot, 14th day after treatment, seeds resistant to pyrazosulfuron-ethyl
From the text: as §9, §10
(§13) After paddy field soil was loaded into a 1/1,000,000 ha pot, the seeds of Monochoria vaginalis, Pontederia korsakowii and Bidens tripartita were sowed and gently covered with soil, then left to stand in a greenhouse with water storage of 0.5-1 cm deep. The tuber of Sagittaria trifolia was planted on the next day or 2 days later. The water storage was kept at a depth of 3-4 cm thereafter. When the Monochoria vaginalis, Pontederia korsakowii and Bidens tripartita reached their 0.5-leaf stages and the Sagittaria trifolia reached the primary leaf stage, WP or SC aqueous dilutions of the compounds of the present invention formulated according to customary formulation methods were homogeneously dripped for treatment to the specified effective amount using pipettes.
as §12

Pontederia korsakowii = test: Control effect evaluation on weeds in paddy fields; assay type: in vivo; conditions: paddy pot, 14th day after treatment, seeds resistant to pyrazosulfuron-ethyl
From the text: as §9, §10, §13, §12

Monochoria vaginalis = test: Control effect evaluation on weeds in paddy fields; assay type: in vivo; conditions: paddy pot, 14th day after treatment, seeds resistant to pyrazosulfuron-ethyl
From the text: as §9, §10, §13, §12

Paddy rice = test: Post-emergence test, crop safety; conditions: in vivo, 3 weeks
From the text: as §9, §10, §11

Wheat = test: Post-emergence test, crop safety; conditions: in vivo, 3 weeks
From the text: as §9, §10, §11

SMILES: CCC[S@@+]([O-])c1c(C(F)(F)F)ccc(C(=O)Nc2nnc(C)o2)c1F
Control effect of B applied alone in a corresponding dose (%) (Euphorbia helioscopia; B 15 g a.i./ha): 34.3%
Control effect of B applied alone in a corresponding dose (%) (Euphorbia helioscopia; B 30 g a.i./ha): 55.4%

SMILES: CC1(C)CON(Cc2ccc(Cl)cc2Br)C1=O
Control effect of B applied alone in a corresponding dose (%) (Euphorbia helioscopia; B 60 g a.i./ha): 25.7%
Control effect of B applied alone in a corresponding dose (%) (Euphorbia helioscopia; B 120 g a.i./ha): 44.6%

SMILES: Nc1cc(Cl)nc(C(=O)O)c1Cl [Aminopyralid, aminopyralid]
Control effect of B applied alone in a corresponding dose (%) (Veronica [1]; B 30 g a.i./ha): 18.0%
Control effect of B applied alone in a corresponding dose (%) (Veronica [1]; B 60 g a.i./ha): 39.7%

SMILES: CCOC(=O)Cn1c(=O)sc2cccc(Cl)c21 [Benazolinethyl, benazolin-ethyl]
Control effect of B applied alone in a corresponding dose (%) (Veronica [1]; B 75 g a.i./ha): 24.0%
Control effect of B applied alone in a corresponding dose (%) (Veronica [1]; B 150 g a.i./ha): 35.2%

SMILES: Cc1nn(C)cc1C(=O)Oc1c(C(=O)c2ccc(C(F)(F)F)cc2S(C)(=O)=O)c(C)nn1C [Bipyrazone, bipyrazone]
Control effect of B applied alone in a corresponding dose (%) (Euphorbia helioscopia; B 7.5 g a.i./ha): 37.1%
Control effect of B applied alone in a corresponding dose (%) (Euphorbia helioscopia; B 15 g a.i./ha): 55.8%

SMILES: O=C(O)c1nc(Cl)ccc1Cl [Clopyralid, clopyralid]
Control effect of B applied alone in a corresponding dose (%) (Veronica [1]; B 45 g a.i./ha): 12.4%
Control effect of B applied alone in a corresponding dose (%) (Veronica [1]; B 90 g a.i./ha): 33.3%

activity level, Paddy rice [3]: 0
SMILES: COC(=O)c1nc(-c2ccc(C(F)(F)F)c(OC)c2Cl)nc(N)c1OC [Compound 2]
activity level of plant damage (growth control rate), Veronica (Veronica [2]): 9
activity level, Bidens tripartita (Bidens tripartita; 75 g a.i./ha): 9
activity level, Pontederia korsakowii (Pontederia korsakowii; 75 g a.i./ha): 9
activity level, Monochoria vaginalis (Monochoria vaginalis; 75 g a.i./ha): 9

activity level, Paddy rice [3]: 0
SMILES: COC(=O)c1nc(-c2ccc(C(F)F)c(OC)c2F)nc(N)c1OC [Compound 4]
activity level of plant damage (growth control rate), Veronica (Veronica [2]): 9
activity level, Bidens tripartita (Bidens tripartita; 75 g a.i./ha): 9
activity level, Pontederia korsakowii (Pontederia korsakowii; 75 g a.i./ha): 9
activity level, Monochoria vaginalis (Monochoria vaginalis; 75 g a.i./ha): 9

SMILES: COc1c(N)nc(-c2ccc(Br)c(OC)c2F)nc1C(=O)SC [Compound 221]
activity level of plant damage (growth control rate), Veronica (Veronica [2]): 9
activity level of plant damage (growth control rate), Paddy rice (Paddy rice): 0
activity level of plant damage (growth control rate), Wheat (Wheat): 0

SMILES: Cn1[nH]c(C2CC2)c(C(=O)c2ccc(C(F)(F)F)c(N3CCCCC3=O)c2Cl)c1=O [Cypyrafluone, cypyrafluone]
Control effect of B applied alone in a corresponding dose (%) (Euphorbia helioscopia; B 15 g a.i./ha): 34.7%
Control effect of B applied alone in a corresponding dose (%) (Euphorbia helioscopia; B 30 g a.i./ha): 55.2%

SMILES: CCn1ncc(C(=O)c2ccc(S(C)(=O)=O)c(COCC(F)(F)F)c2Cl)c1OC(=O)c1cn(C)nc1C [Fenpyrazone, fenpyrazone]
Control effect of B applied alone in a corresponding dose (%) (Euphorbia helioscopia; B 15 g a.i./ha): 34.3%
Control effect of B applied alone in a corresponding dose (%) (Euphorbia helioscopia; B 30 g a.i./ha): 60.0%

SMILES: COc1ncc(F)c2nc(S(=O)(=O)Nc3c(F)cccc3F)nn12 [Florasulam, florasulam]
Control effect of B applied alone in a corresponding dose (%) (Veronica [1]; B 3 g a.i./ha): 15.7%
Control effect of B applied alone in a corresponding dose (%) (Veronica [1]; B 6 g a.i./ha): 28.1%

SMILES: COc1c(Cl)ccc(-c2nc(C(=O)OCc3ccccc3)c(Cl)c(N)c2F)c1F [Florpyrauxifenbenzyl, florpyrauxifen-benzyl]
Control effect of B applied alone in a corresponding dose (%) (Veronica [1]; B 3 g a.i./ha): 20.1%
Control effect of B applied alone in a corresponding dose (%) (Veronica [1]; B 6 g a.i./ha): 45.8%

SMILES: CCCCCCC(C)OC(=O)COc1nc(F)c(Cl)c(N)c1Cl (stereo not shown) [Fluroxypyrmeptyl, fluroxypyr-meptyl]
Control effect of B applied alone in a corresponding dose (%) (Veronica [1]; B 60 g a.i./ha): 20.3%
Control effect of B applied alone in a corresponding dose (%) (Veronica [1]; B 120 g a.i./ha): 40.6%

SMILES: COC(=O)c1nc(-c2ccc(Cl)c(OC)c2F)cc(N)c1Cl [Halauxifenmethyl, halauxifen-methyl]
Control effect of B applied alone in a corresponding dose (%) (Veronica [1]; B 1.5 g a.i./ha): 22.8%
Control effect of B applied alone in a corresponding dose (%) (Veronica [1]; B 3 g a.i./ha): 43.1%

SMILES: Cc1cc(Cl)ccc1OCC(=O)OCCCCCC(C)C [MCPA-isooctyl]
Control effect of B applied alone in a corresponding dose (%) (Veronica [1]; B 150 g a.i./ha): 23.5%
Control effect of B applied alone in a corresponding dose (%) (Veronica [1]; B 300 g a.i./ha): 40.8%

SMILES: Nc1c(Cl)c(Cl)nc(C(=O)O)c1Cl [Picloram, picloram]
Control effect of B applied alone in a corresponding dose (%) (Veronica [1]; B 15 g a.i./ha): 15.7%
Control effect of B applied alone in a corresponding dose (%) (Veronica [1]; B 30 g a.i./ha): 30.8%

SMILES: Cc1cc(C)n(Cc2c(S(C)(=O)=O)ccc(C(=O)c3c(C)nn(C)c3OC(=O)c3cn(C)nc3C)c2Cl)n1 [Tripyrasulfone, tripyrasulfone]
Control effect of B applied alone in a corresponding dose (%) (Euphorbia helioscopia; B 15 g a.i./ha): 20.0%
Control effect of B applied alone in a corresponding dose (%) (Euphorbia helioscopia; B 30 g a.i./ha): 36.9%

SMILES: CCOC(=O)c1cnn(C)c1S(=O)(=O)NC(=O)Nc1nc(OC)cc(OC)n1 [pyrazosulfuron-ethyl, reference compound]
activity level, Bidens tripartita (Bidens tripartita; 30 g a.i./ha): 4 (Level 4: growth control rate is greater than or equal to 30% and less than 50%)
activity level, Pontederia korsakowii (Pontederia korsakowii; 30 g a.i./ha): 2 (Level 2: growth control rate is greater than or equal to 10% and less than 20%)
activity level, Monochoria vaginalis (Monochoria vaginalis; 30 g a.i./ha): 1 (Level 1: growth control rate is less than 10%)
